# Values joined by “and” are separate entries in the source; they are usually repeats but may differ in a detail not shown here. Equal values may be shown once.
# Tested on: RPMI-8226 cells
# Assay: Gene expression profiling, NanoString nCounter PanCancer Pathways Panel, ROSALIND analysis
# Format: cell-based, human
# Conditions: RPMI-8226, TCH-165 samples 1-3
# Description: RPMI-8226 cells were treated with vehicle or TCH-165 (10 μM) for 4 h. Total RNA was obtained using the mirVana miRNA Isolation Kit, with phenol (Thermofisher Scientific; AM1560; Waltham, MA, USA). Total RNA was quantified by Qubit (Thermofisher Scientific; Q32855; Waltham, MA, USA). and gene expression was evaluated against the nCounter® PanCancer Pathways Panel^TM according to the standard NanoString protocol.
# Data were analyzed by ROSALIND® [36] with a hyperscale architecture developed by ROSALIND, Inc. (San Diego, CA, USA). Normalization, fold changes and p-values were calculated using criteria provided by NanoString. ROSALIND follows the nCounter® Advanced Analysis protocol of dividing counts within a lane by the geometric mean of the normalizer probes from the same lane. Housekeeping probes to be used for normalization are selected based on the geNorm algorithm, as implemented in the NormqPCR R library. Fold changes and p-values are calculated using the fast method as described in the nCounter Advanced Analysis 2.0 User Manual. The p-value adjustment is performed using the Benjamini–Hochberg method of estimating false discovery rates (FDR). Clustering of genes for the final heatmap of differentially expressed genes was done using the PAM (Partitioning Around Medoids) method using the fpc R library. Hypergeometric distribution was used to analyze the enrichment of pathways, gene ontology, domain structure and other ontologies. The topGO R library was used to determine local similarities and dependencies between GO terms in order to perform Elim pruning correction. Several database sources were referenced for enrichment analysis, including Interpro [40], NCBI [41], MSigDB [42, 43], REACTOME [44], WikiPathways. Enrichment was calculated relative to a set of background genes relevant to the experiment.
smiles,measurement,value
CCOC(=O)[C@]1(c2ccccc2)N=C(c2ccc(OC)cc2)N(Cc2ccccc2)[C@@H]1c1ccc(NCc2ccccc2)cc1 [TCH-165],RPA3 normalized gene expression,6.234 and 6.077 and 5.975
same,RPS6KA5 normalized gene expression,8.162 and 8.249 and 8.109
same,RPS6KA6 normalized gene expression,4.308 and 4.154 and 4.653
same,RPS27A normalized gene expression,16.3114 and 16.3789 and 16.3612
same,RRAS2 normalized gene expression,6.59 and 6.242 and 6.0682
same,RUNX1T1 normalized gene expression,4.649 and 5.3768 and 5.0682
same,RUNX1 normalized gene expression,7.156 and 7.154 and 7.31
same,RXRG normalized gene expression,5.758 and 5.569 and 5.1271
same,SETBP1 normalized gene expression,9.152 and 8.96 and 8.955
same,SETD2 normalized gene expression,9.224 and 9.1619 and 9.096
same,SF3B1 normalized gene expression,10.9301 and 10.7965 and 10.7773
same,SFN normalized gene expression,7.723 and 7.476 and 7.668
same,SFRP1 normalized gene expression,5.401 and 5.0613 and 4.731
same,SFRP2 normalized gene expression,4.723 and 4.427 and 4.613
same,SFRP4 normalized gene expression,1.986 and 2.3768 and 2.483
same,SGK2 normalized gene expression,4.401 and 4.324 and 4.0682
same,SHC1 normalized gene expression,10.583 and 10.7262 and 10.7216
same,SHC2 normalized gene expression,3.723 and 3.962 and 3.653
same,SHC3 normalized gene expression,6.308 and 6.364 and 6.251
same,SIN3A normalized gene expression,9.8539 and 9.738 and 9.646
same,SIRT4 normalized gene expression,5.156 and 4.739 and 5.238
same,SIX1 normalized gene expression,3.571 and 3.3768 and 4.1271
same,SKP1 normalized gene expression,12.8613 and 12.7826 and 12.7408
same,SKP2 normalized gene expression,8.831 and 8.717 and 8.705
same,SMAD2 normalized gene expression,9.453 and 9.37 and 9.493
same,SMAD3 normalized gene expression,6.723 and 6.646 and 6.759
same,SMAD4 normalized gene expression,9.445 and 9.475 and 9.381
same,SMAD9 normalized gene expression,4.208 and 3.657 and 4.238
same,SMARCA4 normalized gene expression,10.8723 and 10.9931 and 10.958
same,SMARCB1 normalized gene expression,9.431 and 9.4165 and 9.399
same,SMC1A normalized gene expression,10.4464 and 10.4079 and 10.3505
same,SMC1B normalized gene expression,4.401 and 3.739 and 3.731
same,SMC3 normalized gene expression,10.9533 and 10.9237 and 10.9519
same,SMO normalized gene expression,5.986 and 5.657 and 5.341
same,SOCS1 normalized gene expression,6.892 and 6.769 and 6.683
same,SOCS2 normalized gene expression,5.955 and 5.476 and 5.5707
same,SOCS3 normalized gene expression,5.827 and 5.351 and 5.613
same,SOS1 normalized gene expression,8.45 and 8.321 and 8.235
same,SOS2 normalized gene expression,7.434 and 7.338 and 7.36
same,SOST normalized gene expression,3.86 and 3.3768 and 3.805
same,SOX9 normalized gene expression,5.044 and 5.093 and 4.731
same,SP1 normalized gene expression,7.695 and 7.694 and 7.736
same,SPOP normalized gene expression,6.308 and 6.324 and 6.0531
same,SPP1 normalized gene expression,11.9193 and 11.8738 and 11.9244
same,SPRY1 normalized gene expression,4.308 and 4.154 and 4.184
same,SPRY2 normalized gene expression,5.793 and 5.154 and 5.0682
same,SRSF2 normalized gene expression,10.5286 and 10.321 and 10.2662
same,SSX1 normalized gene expression,4.571 and 4.614 and 4.341
same,STAG2 normalized gene expression,11.0854 and 11.0452 and 11.0734
same,STAT1 normalized gene expression,8.92 and 8.846 and 9.0757
same,STAT3 normalized gene expression,9.132 and 9.111 and 9.089
same,STAT4 normalized gene expression,7.259 and 7.045 and 7.149
same,STK11 normalized gene expression,7.868 and 7.592 and 7.623
same,STMN1 normalized gene expression,12.569 and 12.5392 and 12.5363
same,SYK normalized gene expression,10.2633 and 10.2568 and 10.1565
same,TCF3 normalized gene expression,9.548 and 9.673 and 9.547
same,TCL1B normalized gene expression,2.986 and 2.569 and 2.943
same,TET2 normalized gene expression,7.142 and 7.021 and 6.918
same,TFDP1 normalized gene expression,10.7659 and 10.7019 and 10.7109
same,TGFB1 normalized gene expression,8.78 and 8.675 and 8.641
same,TGFB2 normalized gene expression,3.86 and 3.27 and 3.943
same,TGFB3 normalized gene expression,4.986 and 4.891 and 4.483
same,TGFBR2 normalized gene expression,7.169 and 7.004 and 6.787
same,THBS1 normalized gene expression,5.445 and 4.927 and 4.769
same,THBS4 normalized gene expression,3.208 and 2.569 and 3.291
same,TIAM1 normalized gene expression,5.793 and 5.476 and 5.414
same,TLR2 normalized gene expression,6.355 and 5.855 and 5.876
same,TLR4 normalized gene expression,8.52 and 8.18 and 8.197
same,TLX1 normalized gene expression,3.86 and 4.427 and 4.1271
same,TMPRSS2 normalized gene expression,6.182 and 6.093 and 6.1126
same,TNC normalized gene expression,4.723 and 4.7789 and 4.39
same,TNF normalized gene expression,4.986 and 4.817 and 5.0682
same,TNFAIP3 normalized gene expression,7.658 and 7.488 and 7.528
same,TNFRSF10A normalized gene expression,7.986 and 7.827 and 7.893
same,TNFRSF10B normalized gene expression,6.61 and 6.5 and 6.602
same,TNFRSF10C normalized gene expression,4.101 and 3.891 and 3.943
same,TNFRSF10D normalized gene expression,6.827 and 6.476 and 6.461
same,TNFSF10 normalized gene expression,8.202 and 8.1619 and 8.225
same,TNR normalized gene expression,5.686 and 5.297 and 5.5707
same,TP53 normalized gene expression,10.0117 and 9.981 and 9.929
same,TPO normalized gene expression,4.924 and 5.184 and 5.156
same,TSC1 normalized gene expression,8.714 and 8.273 and 8.399
same,TSHR normalized gene expression,4.649 and 4.476 and 4.39
same,TSPAN7 normalized gene expression,6.776 and 6.891 and 6.539
same,TTK normalized gene expression,9.89 and 9.8374 and 9.804
same,U2AF1 normalized gene expression,12.4063 and 12.4515 and 12.4562
same,UBB normalized gene expression,12.5802 and 12.4733 and 12.4875
same,UBE2T normalized gene expression,10.5402 and 10.5496 and 10.5687
same,UTY normalized gene expression,3.86 and 4.093 and 4.0682
same,VEGFA normalized gene expression,10.7951 and 10.7989 and 10.8309

# From publication PMC9138505, “Small Molecule 20S Proteasome Enhancer Regulates MYC Protein Stability and Exhibits Antitumor Activity in Multiple Myeloma” (Biomedicines, 2022)
